Numbered stars: 1 amine (or outer) side, 2 acyl side, 3 side chain; on linkers, the order of the positions; unused ones are H or OH. Bridge positions count the residues as written; N and C are the ends. Square brackets hold non-standard residues; d marks the D form. Side chains are listed from the residue outwards. Peptide text beside a SMILES is read from it. * marks the point of attachment. C18 diacid = O=C(O)CCCCCCCCCCCCCCCCC(=O)*; γGlu = O=C(O)[C@H](CCC(=O)[*:2])N[*:1]; Aib = CC(C)(N)C(=O)O
Legend:
[1] = target: T1, human calcitonin receptor (hCTR) (Homo sapiens, UniProt P30988); test: cAMP production in 1321N1 cells with stable recombinant expression of human calcitonin receptor (hCTR); format: cell-based; conditions: cAMP, 1321N1 cells, assay buffer with 0.1% BSA; read-out: EC50 (pM) hCTR
T1 construct: expressed in transfected cells
T1 sequence (P30988 25-474): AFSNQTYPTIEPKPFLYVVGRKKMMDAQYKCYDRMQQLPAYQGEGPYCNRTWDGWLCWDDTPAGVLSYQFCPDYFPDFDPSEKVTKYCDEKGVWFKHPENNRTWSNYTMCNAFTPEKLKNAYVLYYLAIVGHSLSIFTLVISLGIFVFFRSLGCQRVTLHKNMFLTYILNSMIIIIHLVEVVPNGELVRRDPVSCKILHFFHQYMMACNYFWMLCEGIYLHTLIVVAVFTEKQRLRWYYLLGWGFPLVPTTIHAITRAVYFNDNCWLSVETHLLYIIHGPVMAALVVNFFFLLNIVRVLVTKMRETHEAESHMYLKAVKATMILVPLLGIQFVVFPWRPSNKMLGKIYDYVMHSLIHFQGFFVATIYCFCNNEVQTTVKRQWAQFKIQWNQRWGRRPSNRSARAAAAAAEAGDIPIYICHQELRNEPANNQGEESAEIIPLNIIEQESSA
Summary of the method: (§1)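 Thawed cells in HBSS/0.1% BSA/25 mM HEPES pH 7.4 with 0.5 mM IBMX were incubated with peptides 30 min at room temperature; cAMP read by HTRF. EC50 from 4-parameter fit of % activation relative to maximal amylin or calcitonin effect.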

[2] = target: T2, human amylin receptor (calcitonin receptor co-expressed with receptor activity modifying protein, RAMP3) (hAMYR3) (Homo sapiens, UniProt O60896+P30988); test: cAMP production in 1321N1 cells with stable recombinant expression of human amylin receptor (hAMYR3); format: cell-based; conditions: for Ratio (selectivity hAMYR vs hCTR, ratio of EC50 values at the two receptors): EC50 hCTR / EC50 hAMYR3; for EC50: cAMP, 1321N1 cells, assay buffer with 0.1% BSA, read-out: EC50 (pM) hAMYR3
T2 construct: expressed in transfected cells
T2 sequence (P30988 25-474): T1 sequence (P30988 25-474)
T2 sequence (O60896 24-148 partner): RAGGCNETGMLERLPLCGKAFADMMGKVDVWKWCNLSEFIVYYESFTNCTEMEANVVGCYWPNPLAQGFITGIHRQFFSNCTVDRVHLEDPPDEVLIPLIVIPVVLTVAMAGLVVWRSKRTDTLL
Summary of the method: as §1

SMILES	EC50 [1] [pM]	Ratio (selectivity hAMYR vs hCTR, ratio of EC50 values at the two receptors) [2]	EC50 [2] [pM]
CC[C@H](C)[C@H](NC(=O)[C@@H]1CCCN1C(=O)CNC(=O)[C@H](Cc1ccccc1)NC(=O)[C@H](CC(N)=O)NC(=O)C(C)(C)NC(=O)[C@H](CO)NC(=O)[C@H](CO)NC(=O)[C@H](Cc1c[nH]cn1)NC(=O)[C@@H](NC(=O)[C@H](CC(C)C)NC(=O)[C@H](Cc1ccccc1)NC(=O)[C@H](CC(N)=O)NC(=O)[C@H](C)NC(=O)[C@H](CC(C)C)NC(=O)[C@H](CCCNC(=N)N)NC(=O)[C@H](CCC(N)=O)NC(=O)[C@@H](NC(=O)[C@H](C)NC(=O)[C@@H]1CSSC[C@H](NC(=O)[C@@H](N)CCCCNC(=O)CC[C@H](NC(=O)CC[C@H](NC(=O)CCCCCCCCCCCCCCCCC(=O)O)C(=O)O)C(=O)O)C(=O)N[C@@H](CC(N)=O)C(=O)N[C@@H]([C@@H](C)O)C(=O)N[C@@H](C)C(=O)N[C@@H]([C@@H](C)O)C(=O)N1)[C@@H](C)O)C(C)C)C(=O)N[C@@H](CC(C)C)C(=O)N1CCC[C@H]1C(=O)N1CCC[C@H]1C(=O)N[C@H](C(=O)N[C@@H](CCCNC(=N)N)C(=O)N[C@H](C(=O)NCC(=O)N[C@@H](CO)C(=O)N[C@@H](CC(N)=O)C(=O)N[C@H](C(=O)N[C@@H](Cc1ccc(O)cc1)C(N)=O)[C@@H](C)O)C(C)C)[C@@H](C)O [Peptide 67, K(γE-γE-C18diacid)[CNTATC]ATQRLANFLVHSS(Aib)NFGPILPPTRVGSNTY-amide] (H-K([γGlu-γGlu-C18 diacid])CNTATCATQRLANFLVHSS[Aib]NFGPILPPTRVGSNTY-NH2; disulfide 2-7; N-terminus assumed)	4010	30	132
CC[C@H](C)[C@H](NC(=O)[C@@H]1CCCN1C(=O)CNC(=O)[C@H](Cc1ccccc1)NC(=O)[C@H](CC(N)=O)NC(=O)C(C)(C)NC(=O)[C@H](CO)NC(=O)[C@H](CO)NC(=O)[C@H](Cc1c[nH]cn1)NC(=O)[C@@H](NC(=O)[C@H](CC(C)C)NC(=O)[C@H](Cc1ccccc1)NC(=O)[C@H](CC(N)=O)NC(=O)[C@H](C)NC(=O)[C@H](CC(C)C)NC(=O)[C@H](CCCNC(=N)N)NC(=O)[C@H](CCC(N)=O)NC(=O)[C@@H](NC(=O)[C@H](C)NC(=O)[C@@H]1CSSC[C@H](NC(=O)[C@H](CCCCN)NC(=O)[C@@H](N)CCCCNC(=O)CC[C@H](NC(=O)CCCCCCCCCCCCCCCCC(=O)O)C(=O)O)C(=O)N[C@@H](CC(N)=O)C(=O)N[C@@H]([C@@H](C)O)C(=O)N[C@@H](C)C(=O)N[C@@H]([C@@H](C)O)C(=O)N1)[C@@H](C)O)C(C)C)C(=O)N[C@@H](CC(C)C)C(=O)N1CCC[C@H]1C(=O)N1CCC[C@H]1C(=O)N[C@H](C(=O)N[C@@H](CC(N)=O)C(=O)N[C@H](C(=O)NCC(=O)N[C@@H](CO)C(=O)N[C@@H](CCCNC(=N)N)C(=O)N[C@H](C(=O)N[C@@H](Cc1ccc(O)cc1)C(N)=O)[C@@H](C)O)C(C)C)[C@@H](C)O [Peptide 73, K(γE-C18diacid)K[CNTATC]ATQRLANFLVHSS(Aib)NFGPILPPTNVGSRTY-amide] (H-K([γGlu-C18 diacid])KCNTATCATQRLANFLVHSS[Aib]NFGPILPPTNVGSRTY-NH2; disulfide 3-8; N-terminus assumed)	1820	7	256
CC[C@H](C)[C@H](NC(=O)[C@@H]1CCCN1C(=O)CNC(=O)[C@H](Cc1ccccc1)NC(=O)[C@H](CC(N)=O)NC(=O)C(C)(C)NC(=O)[C@H](CO)NC(=O)[C@H](CO)NC(=O)[C@H](Cc1c[nH]cn1)NC(=O)[C@@H](NC(=O)[C@H](CC(C)C)NC(=O)[C@H](Cc1ccccc1)NC(=O)[C@H](CC(N)=O)NC(=O)[C@H](C)NC(=O)[C@H](CC(C)C)NC(=O)[C@H](CCCNC(=N)N)NC(=O)[C@H](CCC(N)=O)NC(=O)[C@@H](NC(=O)[C@H](C)NC(=O)[C@@H]1CSSC[C@H](NC(=O)[C@H](CCCCN)NC(=O)[C@@H](N)CCCCNC(=O)CC[C@H](NC(=O)CC[C@H](NC(=O)CCCCCCCCCCCCCCCCC(=O)O)C(=O)O)C(=O)O)C(=O)N[C@@H](CC(N)=O)C(=O)N[C@@H]([C@@H](C)O)C(=O)N[C@@H](C)C(=O)N[C@@H]([C@@H](C)O)C(=O)N1)[C@@H](C)O)C(C)C)C(=O)N[C@@H](CC(C)C)C(=O)N1CCC[C@H]1C(=O)N1CCC[C@H]1C(=O)N[C@H](C(=O)N[C@@H](CC(N)=O)C(=O)N[C@H](C(=O)NCC(=O)N[C@@H](CO)C(=O)N[C@@H](CCCNC(=N)N)C(=O)N[C@H](C(=O)N[C@@H](Cc1ccc(O)cc1)C(N)=O)[C@@H](C)O)C(C)C)[C@@H](C)O [Peptide 74, K(γE-γE-C18diacid)K[CNTATC]ATQRLANFLVHSS(Aib)NFGPILPPTNVGSRTY-amide] (H-K([γGlu-γGlu-C18 diacid])KCNTATCATQRLANFLVHSS[Aib]NFGPILPPTNVGSRTY-NH2; disulfide 3-8; N-terminus assumed)	4570	13	356

Next, values leading:

EC50 [1] [pM]	Ratio (selectivity hAMYR vs hCTR, ratio of EC50 values at the two receptors) [2]	EC50 [2] [pM]	SMILES
1770	9	192	CC[C@H](C)[C@H](NC(=O)[C@@H]1CCCN1C(=O)CNC(=O)[C@H](Cc1ccccc1)NC(=O)[C@H](CC(N)=O)NC(=O)C(C)(C)NC(=O)[C@H](CO)NC(=O)[C@H](CO)NC(=O)[C@H](Cc1c[nH]cn1)NC(=O)[C@@H](NC(=O)[C@H](CC(C)C)NC(=O)[C@H](Cc1ccccc1)NC(=O)[C@H](CC(N)=O)NC(=O)[C@H](C)NC(=O)[C@H](CC(C)C)NC(=O)[C@H](CCCNC(=N)N)NC(=O)[C@H](CCC(N)=O)NC(=O)[C@@H](NC(=O)[C@H](C)NC(=O)[C@@H]1CSSC[C@H](NC(=O)CC[C@H](NC(=O)CCCCCCCCCCCCCCCCC(=O)O)C(=O)O)C(=O)N[C@@H](CC(N)=O)C(=O)N[C@@H]([C@@H](C)O)C(=O)N[C@@H](C)C(=O)N[C@@H]([C@@H](C)O)C(=O)N1)[C@@H](C)O)C(C)C)C(=O)N[C@@H](CC(C)C)C(=O)N1CCC[C@H]1C(=O)N1CCC[C@H]1C(=O)N[C@H](C(=O)N[C@@H](CCCNC(=N)N)C(=O)N[C@H](C(=O)NCC(=O)N[C@@H](CO)C(=O)N[C@@H](CC(N)=O)C(=O)N[C@H](C(=O)N[C@@H](Cc1ccc(O)cc1)C(N)=O)[C@@H](C)O)C(C)C)[C@@H](C)O [Peptide 68, (C18diacid-γE-[CNTATC]ATQRLANFLVHSS(Aib)NFGPILPPTRVGSNTY-amide] ({C18 diacid-γGlu}-CNTATCATQRLANFLVHSS[Aib]NFGPILPPTRVGSNTY-NH2; disulfide 1-6)
4000	18	227	CC[C@H](C)[C@H](NC(=O)[C@@H]1CCCN1C(=O)CNC(=O)[C@H](Cc1ccccc1)NC(=O)[C@H](CC(N)=O)NC(=O)C(C)(C)NC(=O)[C@H](CO)NC(=O)[C@H](CO)NC(=O)[C@H](Cc1c[nH]cn1)NC(=O)[C@@H](NC(=O)[C@H](CC(C)C)NC(=O)[C@H](Cc1ccccc1)NC(=O)[C@H](CC(N)=O)NC(=O)[C@H](C)NC(=O)[C@H](CC(C)C)NC(=O)[C@H](CCCNC(=N)N)NC(=O)[C@H](CCC(N)=O)NC(=O)[C@@H](NC(=O)[C@H](C)NC(=O)[C@@H]1CSSC[C@H](NC(=O)[C@@H](N)CCCCNC(=O)CC[C@H](NC(=O)CC[C@H](NC(=O)CCCCCCCCCCCCCCCCC(=O)O)C(=O)O)C(=O)O)C(=O)N[C@@H](CC(N)=O)C(=O)N[C@@H]([C@@H](C)O)C(=O)N[C@@H](C)C(=O)N[C@@H]([C@@H](C)O)C(=O)N1)[C@@H](C)O)C(C)C)C(=O)N[C@@H](CC(C)C)C(=O)N1CCC[C@H]1C(=O)N1CCC[C@H]1C(=O)N[C@H](C(=O)N[C@@H](CC(N)=O)C(=O)N[C@H](C(=O)NCC(=O)N[C@@H](CO)C(=O)N[C@@H](CCCNC(=N)N)C(=O)N[C@H](C(=O)N[C@@H](Cc1ccc(O)cc1)C(N)=O)[C@@H](C)O)C(C)C)[C@@H](C)O [Peptide 72, K(γE-γE-C18diacid)[CNTATC]ATQRLANFLVHSS(Aib)NFGPILPPTNVGSRTY-amide] (H-K([γGlu-γGlu-C18 diacid])CNTATCATQRLANFLVHSS[Aib]NFGPILPPTNVGSRTY-NH2; disulfide 2-7; N-terminus assumed)

— patent US20240067693A1, “POLYPEPTIDES AND USES THEREOF” (MEDIMMUNE LIMITED, priority 2020, published 2024)
